# Patent US20250351829A1, “HERBICIDAL COMBINATIONS AND A METHOD FOR CONTROLLING UNDESIRED VEGETATION” (UPL Mauritius Limited, priority 2022, published 2025)
# Test system: Bidens pilosa
# Assay: Post-emergence herbicidal activity, weed control efficacy trials
# Assay type: in vivo
# Conditions: 7 DAA
# Experimental: Methodology: Trials were conducted to evaluate the efficacy of the combinations comprising L-glufosinate ammonium and additional herbicides on Bidens pilosa weed.
# The soil used was sandy clay loam-sand: 68.0%; silt: 8.0%; clay: 24.0%.
# All treatments were in 3 replications per treatment with a spray volume of about 150 L/ha.
# Efficacy Evaluation: The expected efficacy of the combination comprising L-glufosinate ammonium and additional herbicides was calculated using the well-established Colby method.
# In the Colby method, the expected (or predicted) response of a combination of herbicides is calculated by taking the product of the observed response for each individual component of the combination when applied alone, divided by 100, and subtracting this value from the sum of the observed response for each component when applied alone. An unexpected enhancement in efficacy of the combination is then determined by comparing the observed response of the combination to the expected (or predicted) response as calculated from the observed response of each individual component alone. If the observed response of the combination is greater than the expected (or predicted) response, or stated conversely, if the difference between the observed and expected response is greater than zero, then the combination is said to be synergistic or unexpectedly effective (Colby, S. R., Weeds, 1967(15), p. 20-22). The Colby method requires only a single dose of each herbicide applied alone and the mixture of both doses. The formula used to calculate the expected efficacy (EE) which was compared with the observed efficacy (OE) to determine the efficacy of the present disclosure is explained hereinbelow: […]
structure (smiles),measurement,setting,value
Cc1ccc2c(c1)[C@H](Nc1nc(N)nc(C(C)F)n1)[C@@H](C)C2 (stereo partly drawn) [Indaziflam],Observed efficacy (%) of Indaziflam (50 g a.i./ha),50 g a.i./ha,90%
CP(=O)(O)CC[C@H](N)C(=O)O.N [L-glufosinate ammonium],Observed efficacy (%) of L-glufosinate ammonium (150 g a.i./ha),Example 1,95%
same,Observed efficacy (%) of L-glufosinate ammonium (150 g a.i./ha),Example 2,95%
same,Observed efficacy (%) of L-glufosinate ammonium (150 g a.i./ha),Example 3,95%
CCc1cccc(C)c1N(COC(C)C)C(=O)CCl [Propisochlor],Observed efficacy (%) of Propisochlor (540 g a.i./ha),540 g a.i./ha,5%
"Cn1nc(C(F)(F)F)c(CS(=O)(=O)C2=NOC(C)(C)C2)c1OC(F)F [pyroxasulfone, Pyroxasulfone]",Observed efficacy (%) of pyroxasulfone (75 g a.i./ha),75 g a.i./ha,5%
